Common to all, as to type: binding
Assay [1] addresses T1, JAK2 (Homo sapiens, UniProt O60674).
T1 construct: endogenous in cells; host or cells: Molt4 (ATCC CRL-1582) and Ramos (ATCC CRL-1596) cells; mixed lysate 1:2
Kind of assay: Kinobeads assay with immunodetection, JAK2. The conditions noted are these: mixed Molt4/Ramos lysate, read-out: Inhibition values (IC50) JAK2. How it is done:
(§1) Determination of the Effect of the Compounds According to the Invention on Janus Kinases (JAK Family) in Kinobeads™ Assays with Immunodetection of Kinases
(§2) The compounds of the present invention as described in the previous examples were tested in a Kinobeads™ assay as described for ZAP-70 (WO-A 2007/137867). Briefly, test compounds (at various concentrations) and the affinity matrix with the immobilized aminopyrido-pyrimidine ligand 24 were added to cell lysate aliquots and allowed to bind to the proteins in the lysate sample. After the incubation time the beads with captured proteins were separated from the lysate. Bound proteins were then eluted and the presence of JAK1, JAK2, JAK3 and TYK2 was detected and quantified using specific antibodies in a dot blot procedure and the Odyssey infrared detection system. Dose response curves for individual kinases were generated and IC50 values calculated. Kinobeads™ assays for ZAP-70 (WO-A 2007/137867) and for kinase selectivity profiling (WO-A 2006/134056) have been previously described.
(§3) The affinity matrix was washed two times with 15 mL of 1×DP buffer containing 0.2% NP40 (IGEPAL® CA-630, Sigma, #13021) and then resuspended in 1×DP buffer containing 0.2% NP40 (3% beads slurry).
(§4) 5×DP buffer: 250 mM Tris-HCl pH 7.4, 25% Glycerol, 7.5 mM MgCl2, 750 mM NaCl, 5 mM Na3VO4; filter the 5×DP buffer through a 0.22 μm filter and store in aliquots at −80° C. The 5×DP buffer is diluted with H2O to 1×DP buffer containing 1 mM DTT and 25 mM NaF.
(§5) Stock solutions of test compounds were prepared in DMSO. In a 96 well plate 30 μL solution of diluted test compounds at 5 mM in DMSO were prepared. Starting with this solution a 1:3 dilution series (9 steps) was prepared. For control experiments (no test compound) a buffer containing 2% DMSO was used.
(§6) Molt4 cells (ATCC catalogue number CRL-1582) and Ramos cells (ATCC catalogue number CRL-1596) were grown in 1 L Spinner flasks (Integra Biosciences, #182101) in suspension in RPMI 1640 medium (Invitrogen, #21875-034) supplemented with 10% Fetal Bovine Serum (Invitrogen) at a density between 0.15×10^6 and 1.2×10^6 cells/mL. Cells were harvested by centrifugation, washed once with 1×PBS buffer (Invitrogen, #14190-094) and cell pellets were frozen in liquid nitrogen and subsequently stored at −80° C. Cells were homogenized in a Potter S homogenizer in lysis buffer: 50 mM Tris-HCl, 0.8% NP40, 5% glycerol, 150 mM NaCl, 1.5 mM MgCl2, 25 mM NaF, 1 mM sodium vanadate, 1 mM DTT, pH 7.5. One complete EDTA-free tablet (protease inhibitor cocktail, Roche Diagnostics, 1873580) per 25 ml, buffer was added. The material was dounced 10 times using a mechanized POTTER S, transferred to 50 mL falcon tubes, incubated for 30 minutes on ice and spun down for 10 minutes at 20,000 g at 4° C. (10,000 rpm in Sorvall SLA600, precooled). The supernatant was transferred to an ultracentrifuge (UZ)-polycarbonate tube (Beckmann, 355654) and spun for 1 hour at 100.000 g at 4° C. (33.500 rpm in Ti50.2, precooled). The supernatant was transferred again to a fresh 50 mL falcon tube, the protein concentration was determined by a Bradford assay (BioRad) and samples containing 50 mg of protein per aliquot were prepared. The samples were immediately used for experiments or frozen in liquid nitrogen and stored frozen at −80° C.
(§7) Cell lysate (approximately 50 mg protein per plate) was thawed in a water bath at room temperature and then stored on ice. To the thawed cell lysate 1×DP 0.8% NP40 buffer containing protease inhibitors (1 tablet for 25 mL buffer; EDTA-free protease inhibitor cocktail; Roche Diagnostics 1873580) was added in order to reach a final protein concentration of 10 mg/mL total protein. The diluted cell lysate was stored on ice. Mixed Molt4/Ramos lysate was prepared by combining one volume of Molt4 lysate and two volumes of Ramos lysate (ratio 1:2). […]

For assay [2], the target named is T2, JAK3 (Homo sapiens, UniProt P52333).
T2 construct: endogenous in cells; host or cells: Molt4 (ATCC CRL-1582) and Ramos (ATCC CRL-1596) cells; mixed lysate 1:2
T2 sequence (P52333 1-1124): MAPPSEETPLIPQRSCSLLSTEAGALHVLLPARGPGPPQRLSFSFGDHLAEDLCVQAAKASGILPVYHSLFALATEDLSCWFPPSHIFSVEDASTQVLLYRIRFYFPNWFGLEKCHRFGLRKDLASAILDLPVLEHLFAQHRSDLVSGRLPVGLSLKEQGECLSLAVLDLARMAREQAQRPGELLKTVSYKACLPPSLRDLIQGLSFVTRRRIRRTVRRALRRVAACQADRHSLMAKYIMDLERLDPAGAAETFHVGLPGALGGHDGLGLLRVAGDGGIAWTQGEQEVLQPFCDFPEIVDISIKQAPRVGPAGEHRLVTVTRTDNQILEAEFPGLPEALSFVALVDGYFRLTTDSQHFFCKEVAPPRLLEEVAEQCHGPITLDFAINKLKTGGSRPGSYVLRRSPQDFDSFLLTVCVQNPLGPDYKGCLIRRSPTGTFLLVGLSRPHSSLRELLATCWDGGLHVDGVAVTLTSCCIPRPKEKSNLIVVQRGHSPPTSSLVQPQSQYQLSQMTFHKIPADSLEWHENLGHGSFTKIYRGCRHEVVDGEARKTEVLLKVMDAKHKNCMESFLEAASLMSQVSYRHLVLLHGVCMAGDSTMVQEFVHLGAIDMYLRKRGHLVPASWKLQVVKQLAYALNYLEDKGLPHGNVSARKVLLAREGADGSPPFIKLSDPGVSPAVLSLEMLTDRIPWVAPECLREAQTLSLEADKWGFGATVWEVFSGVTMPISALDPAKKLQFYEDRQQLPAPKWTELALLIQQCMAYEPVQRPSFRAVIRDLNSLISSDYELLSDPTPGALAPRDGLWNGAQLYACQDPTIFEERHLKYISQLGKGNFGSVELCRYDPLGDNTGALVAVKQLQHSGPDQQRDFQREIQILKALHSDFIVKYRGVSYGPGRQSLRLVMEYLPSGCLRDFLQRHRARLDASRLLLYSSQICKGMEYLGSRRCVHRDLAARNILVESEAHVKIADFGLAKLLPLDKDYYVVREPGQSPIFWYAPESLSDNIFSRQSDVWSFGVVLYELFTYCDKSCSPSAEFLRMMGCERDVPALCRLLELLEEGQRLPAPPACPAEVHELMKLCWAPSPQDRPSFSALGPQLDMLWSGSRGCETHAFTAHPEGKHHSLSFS
Kind of assay: Kinobeads assay with immunodetection, JAK3. The conditions noted are these: for IC50: Kinobeads assay, mixed Molt4/Ramos lysate, read-out: Inhibition values (IC50) JAK3. How it is done:
as §1, §2, §3, §4, §5, §6, §7

Assay [3] addresses T3, JAK1 (Homo sapiens, UniProt P23458).
T3 construct: endogenous in cells; host or cells: Molt4 (ATCC CRL-1582) and Ramos (ATCC CRL-1596) cells; mixed lysate 1:2
Kind of assay: Kinobeads assay with immunodetection, JAK1. The conditions noted are these: for IC50: Kinobeads assay, mixed Molt4/Ramos lysate, read-out: Inhibition values (IC50) JAK1. How it is done: as §1, §2, §3, §4, §5, §6, §7

Assay [4] deals with T4, TYK2 (Homo sapiens, UniProt P29597).
T4 construct: endogenous in cells; host or cells: Molt4 (ATCC CRL-1582) and Ramos (ATCC CRL-1596) cells; mixed lysate 1:2
T4 sequence (P29597 whole entry): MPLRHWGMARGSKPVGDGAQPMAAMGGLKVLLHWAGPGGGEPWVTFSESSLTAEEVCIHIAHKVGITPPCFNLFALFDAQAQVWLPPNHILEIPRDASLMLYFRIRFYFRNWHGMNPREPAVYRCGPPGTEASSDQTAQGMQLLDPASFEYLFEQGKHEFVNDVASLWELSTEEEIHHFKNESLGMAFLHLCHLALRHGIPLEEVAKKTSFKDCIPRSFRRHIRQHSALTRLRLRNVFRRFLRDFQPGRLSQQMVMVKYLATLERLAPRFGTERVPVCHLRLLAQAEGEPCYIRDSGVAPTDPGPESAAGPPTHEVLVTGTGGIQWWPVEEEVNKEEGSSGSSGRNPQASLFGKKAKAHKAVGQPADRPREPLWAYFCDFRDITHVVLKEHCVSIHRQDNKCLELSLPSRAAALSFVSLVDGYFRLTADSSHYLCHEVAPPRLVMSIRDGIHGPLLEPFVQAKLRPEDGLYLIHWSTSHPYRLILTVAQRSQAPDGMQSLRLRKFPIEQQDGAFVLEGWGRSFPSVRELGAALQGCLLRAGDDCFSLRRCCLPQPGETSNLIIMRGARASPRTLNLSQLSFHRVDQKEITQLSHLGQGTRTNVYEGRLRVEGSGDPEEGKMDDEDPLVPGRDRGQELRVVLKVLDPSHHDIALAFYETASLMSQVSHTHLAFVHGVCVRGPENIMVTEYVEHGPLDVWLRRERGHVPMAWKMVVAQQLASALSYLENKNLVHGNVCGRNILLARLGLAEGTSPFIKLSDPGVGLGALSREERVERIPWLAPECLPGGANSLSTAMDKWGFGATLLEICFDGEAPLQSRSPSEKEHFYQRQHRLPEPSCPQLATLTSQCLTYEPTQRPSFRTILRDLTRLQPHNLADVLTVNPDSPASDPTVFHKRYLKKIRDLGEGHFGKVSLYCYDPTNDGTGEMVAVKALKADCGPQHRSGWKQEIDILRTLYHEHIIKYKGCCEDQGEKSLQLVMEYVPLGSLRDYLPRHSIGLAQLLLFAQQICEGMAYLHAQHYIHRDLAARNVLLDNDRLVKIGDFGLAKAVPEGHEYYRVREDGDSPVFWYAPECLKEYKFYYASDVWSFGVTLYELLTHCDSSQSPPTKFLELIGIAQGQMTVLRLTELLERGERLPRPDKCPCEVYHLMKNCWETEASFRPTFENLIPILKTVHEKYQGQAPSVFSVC
Put plainly: Kinobeads assay with immunodetection, TYK2. The conditions noted are these: for IC50: Kinobeads assay, mixed Molt4/Ramos lysate, read-out: Inhibition values (IC50) Tyk2. How it is done:
as §1, §2, §3, §4, §5, §6, §7

A value given as a limit tells only on which side of the number the result lay.

T1 sequence (O60674 whole entry): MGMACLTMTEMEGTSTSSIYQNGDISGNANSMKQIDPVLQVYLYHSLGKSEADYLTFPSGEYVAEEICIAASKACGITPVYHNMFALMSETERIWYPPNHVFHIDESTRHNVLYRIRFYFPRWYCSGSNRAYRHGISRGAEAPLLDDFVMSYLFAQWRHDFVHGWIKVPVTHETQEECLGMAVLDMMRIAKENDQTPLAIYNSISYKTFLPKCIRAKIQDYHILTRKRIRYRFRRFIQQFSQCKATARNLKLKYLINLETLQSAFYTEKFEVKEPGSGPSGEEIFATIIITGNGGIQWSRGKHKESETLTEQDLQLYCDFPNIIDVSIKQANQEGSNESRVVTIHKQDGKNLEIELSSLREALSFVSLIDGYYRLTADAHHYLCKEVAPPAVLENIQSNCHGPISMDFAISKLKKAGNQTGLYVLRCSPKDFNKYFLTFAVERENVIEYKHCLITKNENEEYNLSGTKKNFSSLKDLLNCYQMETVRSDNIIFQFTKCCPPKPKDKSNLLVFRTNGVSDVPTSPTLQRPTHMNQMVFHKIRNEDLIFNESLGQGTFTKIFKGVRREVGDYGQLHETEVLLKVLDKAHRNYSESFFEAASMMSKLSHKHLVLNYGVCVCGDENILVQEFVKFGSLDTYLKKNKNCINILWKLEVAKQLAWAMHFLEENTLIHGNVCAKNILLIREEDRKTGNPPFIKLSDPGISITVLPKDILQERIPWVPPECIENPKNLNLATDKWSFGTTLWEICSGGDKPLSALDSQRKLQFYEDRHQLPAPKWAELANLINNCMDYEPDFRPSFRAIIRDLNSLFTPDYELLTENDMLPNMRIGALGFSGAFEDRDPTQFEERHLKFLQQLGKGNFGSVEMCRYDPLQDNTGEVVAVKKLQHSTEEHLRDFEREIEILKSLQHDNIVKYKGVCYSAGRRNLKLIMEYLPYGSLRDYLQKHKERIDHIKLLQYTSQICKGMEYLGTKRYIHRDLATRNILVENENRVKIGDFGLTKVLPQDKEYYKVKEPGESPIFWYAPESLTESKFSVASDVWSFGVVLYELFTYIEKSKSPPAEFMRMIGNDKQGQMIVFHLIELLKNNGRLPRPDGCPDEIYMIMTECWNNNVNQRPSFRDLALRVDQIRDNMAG
T3 sequence (P23458 whole entry): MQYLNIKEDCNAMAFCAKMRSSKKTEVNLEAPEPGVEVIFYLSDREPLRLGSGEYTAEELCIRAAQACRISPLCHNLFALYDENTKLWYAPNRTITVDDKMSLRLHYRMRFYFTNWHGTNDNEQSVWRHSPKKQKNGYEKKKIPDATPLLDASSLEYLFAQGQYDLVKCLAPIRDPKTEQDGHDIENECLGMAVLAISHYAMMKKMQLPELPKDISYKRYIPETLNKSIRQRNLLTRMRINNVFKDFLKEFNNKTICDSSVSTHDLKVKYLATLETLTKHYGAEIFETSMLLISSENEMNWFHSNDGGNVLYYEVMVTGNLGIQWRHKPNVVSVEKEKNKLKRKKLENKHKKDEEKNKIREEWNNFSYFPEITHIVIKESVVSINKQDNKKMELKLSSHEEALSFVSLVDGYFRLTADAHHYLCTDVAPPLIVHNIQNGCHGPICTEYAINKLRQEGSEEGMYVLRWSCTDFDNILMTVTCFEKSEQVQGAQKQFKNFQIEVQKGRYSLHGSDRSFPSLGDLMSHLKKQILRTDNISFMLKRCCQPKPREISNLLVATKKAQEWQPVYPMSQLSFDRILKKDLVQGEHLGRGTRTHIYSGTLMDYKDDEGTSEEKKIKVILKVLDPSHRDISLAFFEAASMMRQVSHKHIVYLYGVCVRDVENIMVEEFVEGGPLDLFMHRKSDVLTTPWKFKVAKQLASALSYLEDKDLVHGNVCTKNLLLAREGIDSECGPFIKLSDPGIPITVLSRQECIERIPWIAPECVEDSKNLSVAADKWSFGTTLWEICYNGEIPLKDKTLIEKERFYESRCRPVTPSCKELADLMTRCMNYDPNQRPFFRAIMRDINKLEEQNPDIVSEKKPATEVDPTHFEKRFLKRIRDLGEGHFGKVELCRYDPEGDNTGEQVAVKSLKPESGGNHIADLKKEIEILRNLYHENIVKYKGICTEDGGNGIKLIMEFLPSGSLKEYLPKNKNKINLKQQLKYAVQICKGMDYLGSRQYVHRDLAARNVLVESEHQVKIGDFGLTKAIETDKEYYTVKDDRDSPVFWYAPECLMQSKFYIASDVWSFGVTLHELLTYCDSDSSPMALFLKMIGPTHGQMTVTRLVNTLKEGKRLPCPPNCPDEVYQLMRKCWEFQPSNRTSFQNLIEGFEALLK

The IC50 is the point on the concentration scale where inhibition reaches its midpoint. With `Cc1cnc(Nc2cnn(C)c2)nc1NC[C@@H]1CCCN1CCS(C)(=O)=O` [Example 105, (S)-5-methyl-N^2-(1-methyl-1H-pyrazol-4-yl)-N^4-((1-(2-(methylsulfonyl)ethyl)pyrrolidin-2-yl)methyl)pyrimidine-2,4-diamine], the IC50 in assay [1] is 1000 to 10000 nM; in assay [2], 100 to 1000 nM; in assay [3] it was under 100 nM; in assay [4], under 100 nM. Moreover, the “Selectivity ratio over JAK2, JAK1” value in assay [3] was “JAK1 = 33”.
On to `Cn1cc(Nc2ncc(Cl)c(NC[C@H]3CCN(S(C)(=O)=O)C3)n2)cn1` [Example 24, (R)-5-chloro-N^2-(1-methyl-1H-pyrazol-4-yl)-N^4-((1-(methylsulfonyl)pyrrolidin-3-yl)methyl)pyrimidine-2,4-diamine], for which the IC50 in assay [1] is 100 to 1000 nM; in assay [2] it was 100 to 1000 nM; in assay [3] it was under 100 nM; in assay [4] it was under 100 nM. In addition, in assay [3], the “Selectivity ratio over JAK2, JAK1” value is on record as “JAK1 = 23”.
Turning to `CN(C)C(=O)Cn1cc(Nc2ncc(Cl)c(NC[C@@H]3CCCN3)n2)cn1` [Example 66, (S)-2-(4-(5-chloro-4-(pyrrolidin-2-ylmethylamino)pyrimidin-2-ylamino)-1H-pyrazol-1-yl)-N,N-dimethylacetamide], the IC50 was over 10000 nM in assay [1], 1000 to 10000 nM in assay [2], 1000 to 10000 nM in assay [3] and 100 to 1000 nM in assay [4].
With `CCS(=O)(=O)N1CCC[C@@H]1CNc1nc(Nc2cnn(C)c2)ncc1Cl` [Example 51, (R)-5-chloro-N^4-((1-(ethylsulfonyl)pyrrolidin-2-yl)methyl)-N^2-(1-methyl-1H-pyrazol-4-yl)pyrimidine-2,4-diamine], the IC50 in assay [1] was 100 to 1000 nM; in assay [2], under 100 nM; in assay [3] it was under 100 nM; in assay [4], under 100 nM. In addition, the “Selectivity ratio over JAK2, Tyk2” value in assay [4] was “Tyk2 = 14”.
In the case of `Cn1cc(Nc2ncc(Cl)c(NCC3CCCN(C(=O)CC#N)C3)n2)cn1` (stereo not drawn) [Example 134, 3-(3-(((5-chloro-2-((1-methyl-1H-pyrazol-4-yl)amino)pyrimidin-4-yl)amino)methyl)piperidin-1-yl)-3-oxopropanenitrile], the IC50 in assay [1] is 100 to 1000 nM; in assay [2], under 100 nM; in assay [3] it was under 100 nM; in assay [4], under 100 nM. Moreover, the “Selectivity ratio over JAK2, JAK3” value in assay [2] is listed as “JAK3 = 32”.
Take `Cc1cnc(Nc2cnn(CC(F)F)c2)nc1NC[C@H]1CCN(CCC#N)C1` [Example 128, (R)-3-(3-(((2-((1-(2,2-difluoroethyl)-1H-pyrazol-4-yl)amino)-5-methylpyrimidin-4-yl)amino)methyl)pyrrolidin-1-yl)propanenitrile]: the IC50 in assay [1] is 1000 to 10000 nM; in assay [2] it was 100 to 1000 nM; in assay [3] it was under 100 nM; in assay [4], 100 to 1000 nM. The “Selectivity ratio over JAK2, JAK1” value in assay [3] was “JAK1 = 77”.
Regarding `Cc1cnc(Nc2cnn(C)c2)nc1NC[C@H]1CCCN1CCC#N` [Example 108, (R)-3-(2-(((5-methyl-2-((1-methyl-1H-pyrazol-4-yl)amino)pyrimidin-4-yl)amino)methyl)pyrrolidin-1-yl)propanenitrile], the IC50 in assay [1] is 1000 to 10000 nM; in assay [2] it was 100 to 1000 nM; in assay [3], 100 to 1000 nM; in assay [4], under 100 nM. The “Selectivity ratio over JAK2, Tyk2” value in assay [4] is “Tyk2 = 80”.
For the compound `CC(=O)N1CCC[C@@H]1CNc1nc(Nc2cnn(C)c2)ncc1Cl` [Example 1, (R)-1-(2-(((5-chloro-2-((1-methyl-1H-pyrazol-4-yl)amino)pyrimidin-4-yl)amino)methyl)pyrrolidin-1-yl)ethanone], the IC50 was 1000 to 10000 nM in assay [1], under 100 nM in assay [2], 100 to 1000 nM in assay [3] and under 100 nM in assay [4]. Further, in assay [3], the “Selectivity ratio over JAK2, JAK1” value is given as “JAK1 = 8”.
As for `C=CC(=O)N1CC[C@H](CNc2nc(Nc3cnn(C)c3)ncc2Cl)C1` [Example 22, (R)-1-(3-(((5-chloro-2-((1-methyl-1H-pyrazol-4-yl)amino)pyrimidin-4-yl)amino)methyl)pyrrolidin-1-yl)prop-2-en-1-one], the IC50 is 1000 to 10000 nM in assay [1], under 100 nM in assay [2], 100 to 1000 nM in assay [3] and 100 to 1000 nM in assay [4]. Besides, the “Selectivity ratio over JAK2, JAK3” value in assay [2] is given as “JAK3 = 610”.
Consider `Cc1cnc(Nc2cnn(CC(F)F)c2)nc1NC[C@@H]1CCCN1C(=O)CCC#N` [Example 125, (S)-4-(2-(((2-((1-(2,2-difluoroethyl)-1H-pyrazol-4-yl)amino)-5-methylpyrimidin-4-yl)amino)methyl)pyrrolidin-1-yl)-4-oxobutanenitrile], for which the IC50 in assay [1] is 1000 to 10000 nM; in assay [2] it was 100 to 1000 nM; in assay [3], under 100 nM; in assay [4], under 100 nM. Besides, the “Selectivity ratio over JAK2, JAK1” value in assay [3] is “JAK1 = 197”.
Consider `Cc1cnc(Nc2cnn(C)c2)nc1NC[C@@H]1C[C@H](F)CN1C(=O)CCC#N` [Example 104, 4-((2S,4S)-4-fluoro-2-(((5-methyl-2-((1-methyl-1H-pyrazol-4-yl)amino)pyrimidin-4-yl)amino)methyl)pyrrolidin-1-yl)-4-oxobutanenitrile], for which the IC50 is 1000 to 10000 nM in assay [1], 100 to 1000 nM in assay [2], under 100 nM in assay [3] and under 100 nM in assay [4]. In assay [3], the “Selectivity ratio over JAK2, JAK1” value was “JAK1 = 96”.

These data come from patent publication US20150005281A1, “PYRIMIDINE-2,4-DIAMINE DERIVATIVES AS KINASE INHIBITORS” (Cellzome Limited, priority 2011, published 2015).
